Data reported in US20260285855A1, “HETEROARYL DERIVATIVES AS DDRS INHIBITORS” (CHIESI FARMACEUTICI S.P.A., priority 2023, published 2026).

Tests used:
[1] = target: T1, DDR1 (Homo sapiens, UniProt Q08345); assay: LanthaScreen Europium Kinase Binding assay, DDR1; settings: 5 nM DDR1, 20 nM Kinase Tracer 178, 1 h at rt; Ki from IC50 by Cheng-Prusoff; read-out: Ki DDR1
T1 construct: purchased Carna Biosciences
Procedure: (§1) DDR1 and DDR2 binding assays were performed using Life Technologies LanthaScreen™ Europium Kinase Binding assay. […] IC50 values were determined in GraphPad Prism 7.0 software, using 4 parameter model: log (inhibitor) vs. response. IC50 values were converted in Ki using the Cheng-Prusoff equation (Ki-IC50/(1+ [Tracer]/Kd).

[2] = target: T2, DDR2 (Homo sapiens, UniProt Q16832); assay: LanthaScreen Europium Kinase Binding assay, DDR2; settings: 5 nM DDR2, 10 nM Kinase Tracer 178, 1 h at rt; Ki from IC50 by Cheng-Prusoff; read-out: Ki DDR2
T2 construct: purchased Life Technologies
T2 sequence (Q16832 22-855): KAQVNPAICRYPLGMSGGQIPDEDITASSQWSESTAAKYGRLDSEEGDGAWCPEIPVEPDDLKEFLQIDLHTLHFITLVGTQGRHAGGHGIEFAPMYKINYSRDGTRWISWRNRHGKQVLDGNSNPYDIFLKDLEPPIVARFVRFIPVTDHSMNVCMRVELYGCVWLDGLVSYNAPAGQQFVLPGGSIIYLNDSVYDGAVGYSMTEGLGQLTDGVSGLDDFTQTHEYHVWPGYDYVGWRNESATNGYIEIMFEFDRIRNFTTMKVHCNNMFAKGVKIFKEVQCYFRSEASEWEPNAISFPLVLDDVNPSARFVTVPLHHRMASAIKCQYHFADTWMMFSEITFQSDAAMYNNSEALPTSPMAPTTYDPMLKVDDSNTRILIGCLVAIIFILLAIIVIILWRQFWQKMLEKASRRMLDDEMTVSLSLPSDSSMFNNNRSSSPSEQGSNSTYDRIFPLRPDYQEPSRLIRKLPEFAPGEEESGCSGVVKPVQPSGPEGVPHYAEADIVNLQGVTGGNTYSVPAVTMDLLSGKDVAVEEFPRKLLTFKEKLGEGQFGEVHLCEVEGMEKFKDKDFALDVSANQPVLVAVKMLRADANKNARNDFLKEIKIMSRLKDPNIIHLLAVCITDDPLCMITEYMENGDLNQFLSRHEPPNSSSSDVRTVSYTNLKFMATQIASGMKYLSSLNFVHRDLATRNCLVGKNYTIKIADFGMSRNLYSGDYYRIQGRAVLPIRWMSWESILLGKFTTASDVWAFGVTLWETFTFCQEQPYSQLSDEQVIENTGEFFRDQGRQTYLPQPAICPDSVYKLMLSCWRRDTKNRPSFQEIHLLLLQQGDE
Procedure: as §1

T1 sequence (Q08345 19-913): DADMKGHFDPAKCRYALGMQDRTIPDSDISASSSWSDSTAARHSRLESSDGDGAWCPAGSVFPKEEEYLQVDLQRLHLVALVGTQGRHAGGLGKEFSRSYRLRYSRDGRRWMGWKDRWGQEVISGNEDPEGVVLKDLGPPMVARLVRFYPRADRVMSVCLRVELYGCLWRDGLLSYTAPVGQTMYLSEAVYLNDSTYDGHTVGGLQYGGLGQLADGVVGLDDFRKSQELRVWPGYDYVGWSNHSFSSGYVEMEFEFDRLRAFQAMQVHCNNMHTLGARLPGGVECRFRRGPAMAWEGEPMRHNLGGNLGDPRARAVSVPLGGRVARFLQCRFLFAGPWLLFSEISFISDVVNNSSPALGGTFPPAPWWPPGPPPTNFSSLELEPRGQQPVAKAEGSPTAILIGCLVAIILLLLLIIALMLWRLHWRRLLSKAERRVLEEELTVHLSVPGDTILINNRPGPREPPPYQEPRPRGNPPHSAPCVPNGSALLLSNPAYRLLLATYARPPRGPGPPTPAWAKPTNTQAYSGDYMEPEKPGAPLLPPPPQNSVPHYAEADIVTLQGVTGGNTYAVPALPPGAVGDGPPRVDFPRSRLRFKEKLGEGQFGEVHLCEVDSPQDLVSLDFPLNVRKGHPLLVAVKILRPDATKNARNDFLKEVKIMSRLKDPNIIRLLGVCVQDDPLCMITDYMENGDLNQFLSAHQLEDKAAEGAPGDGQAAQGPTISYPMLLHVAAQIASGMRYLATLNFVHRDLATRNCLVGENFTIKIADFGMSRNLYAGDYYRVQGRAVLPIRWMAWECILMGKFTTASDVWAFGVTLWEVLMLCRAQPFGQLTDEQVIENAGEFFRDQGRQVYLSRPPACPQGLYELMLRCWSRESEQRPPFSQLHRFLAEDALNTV

SMILES | Ki [1] [nM] | Ki [2] [nM]
CN(C(=O)Nc1cc(C(F)(F)F)ccn1)C1CC2(C1)CN(C(=O)c1cnn3ccsc13)C2 [Example 217, 1-methyl-1-(2-(pyrazolo[5,1-b]thiazole-7-carbonyl)-2-azaspiro[3.3]heptan-6-yl)-3-(4-(trifluoromethyl)pyridin-2-yl)urea] | < 5 | 5 to 25
CN(C(=O)Nc1cncc(C(F)(F)F)c1)C1CC2(C1)CN(C(=O)c1cnn3ccc(N)cc13)C2 [Example 244, 1-(2-(5-aminopyrazolo[1,5-a]pyridine-3-carbonyl)-2-azaspiro[3.3]heptan-6-yl)-1-methyl-3-(5-(trifluoromethyl)pyridin-3-yl)urea] | < 5 | 5 to 25
COc1ccc(OC(F)(F)F)cc1NC(=O)NC1CC2(C1)CN(C(=O)c1ncnc3ccsc13)C2 [Example 62, 1-(2-methoxy-5-(trifluoromethoxy)phenyl)-3-(2-(thieno[3,2-d]pyrimidine-4-carbonyl)-2-azaspiro[3.3]heptan-6-yl)urea] | < 5 | 5 to 25
CN1CCN(c2ccn3ncc(C(=O)N4CC5(CC(NC(=O)Nc6cccc(C(F)(F)F)c6)C5)C4)c3c2)C(=O)C1 [Example 186, 1-(2-(5-(4-methyl-2-oxopiperazin-1-yl)pyrazolo[1,5-a]pyridine-3-carbonyl)-2-azaspiro[3.3]heptan-6-yl)-3-(3-(trifluoromethyl)phenyl)urea] | < 5 | 5 to 25
CN(C(=O)Nc1cccc(C(F)(F)F)c1)C1CC2(C1)CN(C(=O)c1cnn3ccn(C)c13)C2 [Example 134, 1-methyl-1-(2-(1-methyl-1H-imidazo[1,2-b]pyrazole-7-carbonyl)-2-azaspiro[3.3]heptan-6-yl)-3-(3-(trifluoromethyl)phenyl)urea] | < 5 | 5 to 25
Cn1ccn2ncc(C(=O)N3CC4(CC(NC(=O)Nc5cncc(OC(F)(F)F)c5)C4)C3)c12 [Example 51, 1-(2-(1-methyl-1H-imidazo[1,2-b]pyrazole-7-carbonyl)-2-azaspiro[3.3]heptan-6-yl)-3-(5-(trifluoromethoxy)pyridin-3-yl)urea] | < 5 | 5 to 25
CN(C(=O)Nc1cncc(C(F)(F)F)c1)C1CC2(C1)CN(C(=O)c1cnn3ccncc13)C2 [Example 175, 1-methyl-1-(2-(pyrazolo[1,5-a]pyrazine-3-carbonyl)-2-azaspiro[3.3]heptan-6-yl)-3-(5-(trifluoromethyl)pyridin-3-yl)urea] | 5 to 25 | 25 to 100
O=C(Nc1cccc(OC(F)F)c1)NC1CC2(C1)CN(C(=O)c1ncnc3ccsc13)C2 [Example 89, 1-(3-(difluoromethoxy)phenyl)-3-(2-(thieno[3,2-d]pyrimidine-4-carbonyl)-2-azaspiro[3.3]heptan-6-yl)urea] | < 5 | < 5
Cn1ccn2ncc(C(=O)N3CC4(CC(NC(=O)Nc5cc(C(F)(F)F)cc(C#N)n5)C4)C3)c12 [Example 168, 1-(6-cyano-4-(trifluoromethyl)pyridin-2-yl)-3-(2-(1-methyl-1H-imidazo[1,2-b]pyrazole-7-carbonyl)-2-azaspiro[3.3]heptan-6-yl)urea] | < 5 | 5 to 25
O=C(Nc1cccc(C(F)(F)F)c1)NC1CC2(C1)CN(C(=O)c1ccnc3[nH]ccc13)C2 [Example 115, 1-(2-(1H-pyrrolo[2,3-b]pyridine-4-carbonyl)-2-azaspiro[3.3]heptan-6-yl)-3-(3-(trifluoromethyl)phenyl)urea] | < 5 | 5 to 25
CN(C(=O)Nc1cc(C(F)(F)C(F)(F)F)ccn1)C1CC2(C1)CN(C(=O)c1cnn3ccn(C)c13)C2 [Example 305, 1-methyl-1-(2-(1-methyl-1H-imidazo[1,2-b]pyrazole-7-carbonyl)-2-azaspiro[3.3]heptan-6-yl)-3-(4-(perfluoroethyl)pyridin-2-yl)urea] | < 5 | 5 to 25
CN(C(=O)Nc1cncc(C(F)(F)F)c1)C1CC2(C1)CN(C(=O)c1cnn3cc(-c4ccncc4)ccc13)C2 [Example 249, 1-methyl-1-(2-(6-(pyridin-4-yl)pyrazolo[1,5-a]pyridine-3-carbonyl)-2-azaspiro[3.3]heptan-6-yl)-3-(5-(trifluoromethyl)pyridin-3-yl)urea] | < 5 | 5 to 25
Cn1ccn2ncc(C(=O)N3CC4(CC(NC(=O)Nc5cc(C(F)(F)F)ccc5F)C4)C3)c12 [Example 123, 1-(2-fluoro-5-(trifluoromethyl)phenyl)-3-(2-(1-methyl-1H-imidazo[1,2-b]pyrazole-7-carbonyl)-2-azaspiro[3.3]heptan-6-yl)urea] | < 5 | 5 to 25
Cc1cc(NC(=O)N(C)C2CC3(C2)CN(C(=O)c2cnn4ccn(C)c24)C3)cc(OC(F)(F)F)c1 [Example 281, 1-methyl-1-(2-(1-methyl-1H-imidazo[1,2-b]pyrazole-7-carbonyl)-2-azaspiro[3.3]heptan-6-yl)-3-(3-methyl-5-(trifluoromethoxy)phenyl)urea] | < 5 | 5 to 25
CC(C)(c1cc(NC(=O)OC2CC3(C2)CN(C(=O)c2cnn4ccsc24)C3)no1)C(F)(F)F [Example 293, 2-(pyrazolo[5,1-b]thiazole-7-carbonyl)-2-azaspiro[3.3]heptan-6-yl(5-(1,1,1-trifluoro-2-methylpropan-2-yl)isoxazol-3-yl)carbamate] | < 5 | < 5
Cn1ccn2ncc(C(=O)N3CC4(CC(CC(=O)Nc5cc(C(F)(F)F)ccn5)C4)C3)c12 [Example 279, 2-(2-(1-methyl-1H-imidazo[1,2-b]pyrazole-7-carbonyl)-2-azaspiro[3.3]hepan-6-yl)-N-(4-(trifluoromethyl)pyridin-2-yl)acetamide] | < 5 | < 5
CN(C(=O)Nc1cc(C(F)(F)F)cc(Br)n1)C1CC2(C1)CN(C(=O)c1cnn3ccn(C)c13)C2 [Example 308, 3-(6-bromo-4-(trifluoromethyl)pyridin-2-yl)-1-methyl-1-(2-(1-methyl-1H-imidazo[1,2-b]pyrazole-7-carbonyl)-2-azaspiro[3.3]heptan-6-yl)urea] | < 5 | < 5
O=C(Nc1cccc(C(F)(F)F)c1)NC1CC2(C1)CN(C(=O)c1cnc3cccnn13)C2 [Example 7, 1-(2-(imidazo[1,2-b]pyridazine-3-carbonyl)-2-azaspiro[3.3]heptan-6-yl)-3-(3-(trifluoromethyl)phenyl)urea] | 5 to 25 | 5 to 25
Cn1ccn2ncc(C(=O)N3CC4(CC(CC(=O)Nc5cc(OC(F)(F)F)ccn5)C4)C3)c12 [Example 277, 2-(2-(1-methyl-1H-imidazo[1,2-b]pyrazole-7-carbonyl)-2-azaspiro[3.3]heptan-6-yl)-N-(4-(trifluoromethoxy)pyridin-2-yl)acetamide] | < 5 | 5 to 25
Cc1cc(NC(=O)N(C)C2CC3(C2)CN(C(=O)c2cnn4ccn(C)c24)C3)cc(C(F)(F)F)c1 [Example 223, 1-methyl-1-(2-(1-methyl-1H-imidazo[1,2-b]pyrazole-7-carbonyl)-2-azaspiro[3.3]heptan-6-yl)-3-(3-methyl-5-(trifluoromethyl)phenyl)urea] | < 5 | 5 to 25
O=C(Nc1cccc(S(F)(F)(F)(F)F)c1)NC1CC2(C1)CN(C(=O)c1ccnc3[nH]ncc13)C2 [Example 120, 1-(2-(1H-pyrazolo[3,4-b]pyridine-4-carbonyl)-2-azaspiro[3.3]heptan-6-yl)-3-(3-(pentafluoro-16-sulfaneyl)phenyl)urea] | < 5 | < 5
Cn1ccn2ncc(C(=O)N3CC4(CC(NC(=O)Nc5cccc(S(=O)(=O)C(F)(F)F)c5)C4)C3)c12 [Example 161, 1-(2-(1-methyl-1H-imidazo[1,2-b]pyrazole-7-carbonyl)-2-azaspiro[3.3]heptan-6-yl)-3-(3-((trifluoromethyl)sulfonyl)phenyl)urea] | < 5 | 5 to 25
Cc1nc(NC(=O)N(C)C2CC3(C2)CN(C(=O)c2cnn4ccn(C)c24)C3)cc(C(F)(F)F)n1 [Example 290, 1-methyl-1-(2-(1-methyl-1H-imidazo[1,2-b]pyrazole-7-carbonyl)-2-azaspiro[3.3]heptan-6-yl)-3-(2-methyl-6-(trifluoromethyl)pyrimidin-4-yl)urea] | 5 to 25 | 25 to 100
O=C(Nc1cccc(C(F)(F)F)c1)NC1CC2(C1)CN(C(=O)c1ccnc3ccsc13)C2 [Example 137, 1-(2-(thieno[3,2-b]pyridine-7-carbonyl)-2-azaspiro[3.3]heptan-6-yl)-3-(3-(trifluoromethyl)phenyl)urea] | < 5 | < 5
